Data from US9512161B2, “Hydroxyl, keto, and glucuronide derivatives of 3-(4-(7H-pyrrolo[2,3-D]pyrimidin-4-yl)-1H-pyrazol-1-yl)-3-cyclopentylpropanenitrile” (Incyte Corporation, priority 2009, dated 2016).

Test: Metabolite profiling of plasma and urine from human subjects after administration of Compound I (HPLC-MS)
Format: in vivo
Details: human subjects dosed with Compound I; LC-MS detection
Method: Metabolites 1-39 were isolated from human, rat or dog urine, plasma, or feces after administration of Compound I in connection with pharmacokinetic and toxicokinetic studies. The identity of the metabolites were determined after isolation of the metabolite using HPLC methods. Tandem MS/MS analysis and higher order MS^n experiments were conducted as required to elucidate structural information.
Plasma samples from all subjects were pooled by subject and/or by time point. The pooled plasma samples were prepared for HPLC-Radiometric analysis as follows: Aliquots of the pooled plasma samples were initially extracted with approximately two equivalent (W/V) volumes of 1% formic acid in HPLC-grade acetonitrile, followed by vigorous vortexing, and centrifugation to remove denatured plasma proteins. The supernatant was reserved and passed through a pre-conditioned Waters C-18 Solid phase extraction cartridge, and the filtrate retained. The SPE cartridge was retained. The remaining plasma pellet was then extracted three times with 1% formic acid in HPLC-grade acetonitrile/water (90/10), with centrifugation after each extraction. All supernatants were reserved. Each formic acid/acetonitrile/water extraction supernatant was used to elute the SPE cartridge. The SPE cartridge was then rinsed with 1% formic acid in methanol. All eluants were retained, combined, and evaporated under a stream of nitrogen at 30° C. The remainder of this extraction was reconstituted in approximately 0.6 ml of 0.1% formic acid in water, vortexed and centrifuged to remove particulate matter. The supernatant was then analyzed by HPLC-Flow Radiometry and HPLC-MS.
Aliquots of approximately equal amounts of urine from each of the subjects were pooled to represent appropriate time intervals post-dose. Prior to HPLC-Radiometric analysis, each pooled urine sample was centrifuged at 4,000 rpm for 10 min to remove particulate matter, then analyzed directly.
All samples were analyzed by either HPLC-Flow radiometry or HPLC-MS using analytical systems that were as identical as practicable. The HPLC-Flow Radiometry system consisted of an Agilent HP 1100 series Quaternary pump, Autosampler, and UV detector interfaced with a Raytest Ramona-90 flow scintillation detector with a 500 μL liquid scintillation cell. […] Mobile phase “A” consisted of 0.1% formic acid in HPLC-grade water, with mobile phase “B” consisting of HPLC-grade methanol/acetonitrile (1:1). Elution of analytes was achieved through use of a linear increasing gradient of mobile phase “B”. Two different gradient elution methods were employed at various times as needed. Chromatographic conditions for these two methods are outlined below in Tables 3 and 4. […]

| Compound | Matrix in which the metabolite was observed/found |
| --- | --- |
| N#CCC(C1CCCC1)n1cc(-c2[nH]c(=O)nc3c2CC(=O)N3)cn1 (stereo not shown) [Compound 31, 3-cyclopentyl-3-(4-(2,6-dioxo-3,5,6,7-tetrahydro-2H-pyrrolo[2,3-d]pyrimidin-4-yl)-1H-pyrazol-1-yl)propanenitrile] | urine |
| N#CCC(C1CCCC1)n1cc(-c2nc(O)nc3c2C(=O)CN3)cn1 (stereo not shown) [Compound 32, 3-cyclopentyl-3-(4-(2-hydroxy-5-oxo-6,7-dihydro-5H-pyrrolo[2,3-d]pyrimidin-4-yl)-1H-pyrazol-1-yl)propanenitrile] | plasma and urine |
| N#CCC(C1CCCC1)n1cc(-c2ncnc3c2C(O)C(O)N3)cn1 (stereo not shown) [Compound 40, 3-cyclopentyl-3-(4-(5,6-dihydroxy-6,7-dihydro-5H-pyrrolo[2,3-d]pyrimidin-4-yl)-1H-pyrazol-1-yl)propanenitrile] | plasma and urine |
| N#CCC(C1CCCC1)n1cc(-c2ncnc3c2ccn3C2OC(C(=O)O)C(O)C(O)C2O)cn1 (stereo not shown) [Compound 41, 6-(4-(1-(2-cyano-1-cyclopentylethyl)-1H-pyrazol-4-yl)-7H-pyrrolo[2,3-d]pyrimidin-7-yl)-3,4,5-trihydroxytetrahydro-2H-pyran-2-carboxylic acid] | urine |
